Reference: patent US11072741B2, “Optically anisotropic layer, method for producing the optically anisotropic layer, a laminate, polarizing plate, display device, liquid crystal compound, method for producing the liquid crystal compound, and carboxylic acid compound” (FUJIFILM Corporation, priority 2014, dated 2021)

Key:
[1] = Evaluation of phase transition temperature by polarizing microscope; assay type: physicochemical; conditions: for TNi(° C.) Isotropic Phase Transition Point / Tsm—N(° C.) Sm—N Transition Point: during temperature increase
Text: Here, the temperature at which the compound transitions from the smectic phase to the nematic phase may be easily measured by observation of the composition employing polarized light microscopy. For example, in the nematic phase, a schlieren texture specific to the nematic phase is observed, while the texture transitions to a focal conic fan texture in a smectic A phase. Therefore, the phase transition temperature can be measured by observing the textures with a polarizing microscope while increasing or decreasing the temperature.
The phase transition temperatures of the synthesized liquid crystal compounds of the Examples and Comparative Examples were observed using a polarizing microscope to evaluate the degrees of temperature decrease. Specifically, the compounds of the Examples were compared to the compounds of the Comparative Examples, which have different structures for the side chain portions thereof. That is, the phase transition temperature of a compound of a Comparative Example having Ar (the aromatic ring at the center of General Formula 1) in common with the Examples and a side chain portion represented by Formula (Ia) below was used as a reference. Evaluations of A through C were assigned according to the degree of temperature decrease from the reference phase transition temperature.
(§1) For example, compound (I-1) and (I-2) were compared to Comparative Compound (Ia-1), and Compound (III-3) was compared to Comparative Compound (IIIa-3). The evaluation was carried out based on the following criteria.
A: decrease in melting point or Sm-N (smectic-nematic) transition temperature is 20° C. or greater
B: decrease in melting point or Sm-N (smectic-nematic) transition temperature is 5° C. or greater and less than 20° C.
C: decrease in melting point or Sm-N (smectic-nematic) transition temperature is less than 5° C.
With respect to the phase transition temperature, the numerical value in parentheses represents the numerical value during temperature decrease, and other numerical values represent a numerical value during temperature increase.

[2] = Measurement and evaluation of solubility in MEK and CPN; assay type: physicochemical; conditions: for Solubility CPN wt %: cyclopentanone; for Solubility CPN wt % / Solubility MEK wt %: room temperature, visual observation, 5 wt % increments; for Solubility MEK wt %: methyl ethyl ketone
Procedure: Solubility measurements of the synthesized liquid crystal compounds were conducted by the following method. 50 mg of each compound was weighted into a 1.5 mL sample bottle, and solvent was added until the solid component became 40 wt % (75 mg). The solubility was determined to be 40 wt % if clear under visual observation after shaking well manually at room temperature. If undissolved residue was present, solvent was added such that the solid component became 35 wt % (+18 mg). The solubility was determined to be 35 wt % if clear under visual observation after shaking well manually at room temperature. If undissolved residue was present, solvent was added such that the solid component became 30 wt %. Similar operations were performed in increments of 5 wt %, and repeated until the solid component became 5 wt %. If undissolved residue was present, the solubility was determined to be less than 5 wt % (<5 wt %), and measurements were completed. MEK (methyl ethyl ketone) and CPN (cyclopentanone) were utilized as solvents for measuring solubility.
The measured values of solubility were evaluated. The evaluations were conducted by using solubility of a compound of a Comparative Example having Ar (the aromatic ring at the center of General Formula 1) in common with the Examples and a side chain portion represented by Formula (Ia) as a reference, in a manner similar to that in the evaluation of the phase transition temperature. Evaluations of A through C were assigned according to the degree of improvement in solubility from the reference solubility.
as §1
A: solubility improved twofold or greater in plural solvents or a single solvent
B: solubility was the same or improved up to twofold in plural solvents or a single solvent
C: no improvement in solubility in plural solvents or a single solvent

[3] = versus comparative compound with the same Ar and side chain portion of Formula (Ia)

Row | Compound | TNi(° C.) Isotropic Phase Transition Point [1] | Tsm—N(° C.) Sm—N Transition Point [1] | Phase Transition Temperature Evaluation of Decrease [1, 3] | Solubility CPN wt % [2] | Solubility MEK wt % [2] | Solubility Evaluation [2, 3] | melting point
1 | C=CC(=O)OCCOC(=O)CCC(=O)OCCc1ccc(OC(=O)[C@H]2CC[C@H](C(=O)Oc3ccc(OC(=O)[C@H]4CC[C@H](C(=O)Oc5ccc(CCOC(=O)CCC(=O)OCCOC(=O)C=C)cc5)CC4)c4sc(=S)sc34)CC2)cc1 [VI-7] | 145 °C | 137 °C | A (decrease in melting point or Sm-N (smectic-nematic) transition temperature is 20 °C or greater) | 25 wt % | 15 wt % | B (solubility was the same or improved up to twofold in plural solvents or a single solvent) | 123 °C
2 | C=CC(=O)OCCCCCCOc1ccc(OC(=O)[C@H]2CC[C@H](C(=O)Oc3ccc(OC(=O)[C@H]4CC[C@H](C(=O)Oc5ccc(OCCCCCCOC(=O)C=C)cc5)CC4)c(/C=N/Nc4nc5ccccc5s4)c3)CC2)cc1 [VIa-1] | 279 °C | – | – | 20 wt % | 10 wt % | – | 163 °C
3 | C=CC(=O)OCCCCCCOc1ccc(OC(=O)[C@H]2CC[C@H](C(=O)Oc3ccc(OC(=O)[C@H]4CC[C@H](C(=O)Oc5ccc(OCCCCCCOC(=O)C=C)cc5)CC4)c4sc(=S)sc34)CC2)cc1 [VIa-7] | 247 °C | 164 °C | – | 20 wt % | <10 wt % | – | 124 °C
